Experimental data: EPA's ToxValDB 9.5 (doi:10.2903/j.efsa.2013.3240)
≈ marks a conversion by molar mass, not a printed value.

Legend:
[1] = tested on: Typhlodromus pyri; test: LR50; higher = less toxic; settings: acute; duration: 7 days; mortality
[2] = tested on: Aphidius rhopalosiphi; test: LR50; higher = less toxic; settings: acute; duration: 48 hours; mortality
[3] = tested on: Oncorhynchus mykiss; settings: acute; duration: 96 hours; mortality
[4] = tested on: Apis mellifera; settings: acute; duration: 48 hours; oral; unspecified; mortality
[5] = tested on: Colinus virginianus; settings: for NOEL: reproduction developmental, reproduction
[6] = tested on: Bibionidae; settings: chronic/long-term; duration: 28 days; other
[7] = tested on: Tagia sp.
[8] = tested on: Rattus norvegicus
[9] = tested on: Neomysis kadiakensis

FC(F)(F)c1ccc(OCCCOc2c(Cl)cc(OCC=C(Cl)Cl)cc2Cl)nc1 [Pyridalyl]
LR50 [1]: > 600 g/ha
LR50 [2]: 458 g/ha
LC50 [3]: 0.5 µg/mL (≈ 1.02 µM)
LD50 [4]: > 100 µg/piece
LC50 ([5]; acute, oral, diet, mortality): 334 mg/kg-day
LD50 ([5]; acute, oral, mortality): > 2250 mg/kg-day
NOEL ([5]; F): 11.9 mg/kg-day
NOEL [5]: 12.6 mg/kg-day
NOEC [6]: 12 µg/L
LC50 ([7]; acute, duration: 14 days, mortality): > 1000 mg/kg
NOEC ([7]; chronic/long-term, duration: 56 days, reproduction): 63 mg/kg
LD50 ([8]; acute, oral, mortality): > 5000 mg/kg-day
NOAEL ([8]; chronic, duration: 2 years, body weight): 3.4 mg/kg-day
NOAEL ([8]; reproduction developmental, body weight): 2.8 mg/kg-day
NOAEL ([8]; subchronic, duration: 13 weeks, oral, hematological): 5.6 mg/kg-day
LC50 ([9]; acute, duration: 96 hours, mortality): 0.001 µg/mL (≈ 0.00204 µM)
NOEC ([9]; chronic/long-term, duration: 28 days, reproduction): 0.45 µg/L
